Usually IC50 stands for the concentration that inhibits the measured activity by half. Read a low IC50 as higher potency. Broadly, the Ki is the equilibrium dissociation constant of an inhibitor or competing ligand from its target.

The test system of one assay is U2OS. Put plainly: Antiproliferative activity against human U2OS cells harboring p53 assessed inhibition of cell growth incubated for 4 days by celltiter-glo assay. To be noted: 96 h. Background: In ATP-based viability assays light output follows the ATP content of the culture.
The subject of assay [1] is HCT-116. Put plainly: Antiproliferative activity against human HCT-116 cells harboring p53 assessed inhibition of cell growth incubated for 4 days by CCK-8 assay. To be noted: HCT-116, 96 h.
The subject of a further assay is RKO. Briefly: Antiproliferative activity against human RKO cells harboring p53 assessed inhibition of cell growth incubated for 4 days by CCK-8 assay. To be noted: 96 h.
The target of assay [2] is Tumour suppressor protein p53/Mdm4 (Homo sapiens, UniProt O15151). Put plainly: Binding affinity to MDM4/p53 (unknown origin) assessed as inhibition constant by FP assay.
Assay [3] has as its target Tumour suppressor p53/oncoprotein Mdm2 (Homo sapiens, UniProt Q00987). Briefly: Binding affinity to MDM2/p53 (unknown origin) assessed as inhibition constant by FP assay.
In assay [4] the test system is HCT-116. Put plainly: Antiproliferative activity against human HCT-116 cells harboring p53 assessed inhibition of cell growth incubated for 4 days by celltiter-glo assay. The note with it: HCT-116, 96 h.
Another assay has as its target T1, Protein Mdm4 (Homo sapiens, UniProt O15151).
T1 sequence (O15151 whole entry): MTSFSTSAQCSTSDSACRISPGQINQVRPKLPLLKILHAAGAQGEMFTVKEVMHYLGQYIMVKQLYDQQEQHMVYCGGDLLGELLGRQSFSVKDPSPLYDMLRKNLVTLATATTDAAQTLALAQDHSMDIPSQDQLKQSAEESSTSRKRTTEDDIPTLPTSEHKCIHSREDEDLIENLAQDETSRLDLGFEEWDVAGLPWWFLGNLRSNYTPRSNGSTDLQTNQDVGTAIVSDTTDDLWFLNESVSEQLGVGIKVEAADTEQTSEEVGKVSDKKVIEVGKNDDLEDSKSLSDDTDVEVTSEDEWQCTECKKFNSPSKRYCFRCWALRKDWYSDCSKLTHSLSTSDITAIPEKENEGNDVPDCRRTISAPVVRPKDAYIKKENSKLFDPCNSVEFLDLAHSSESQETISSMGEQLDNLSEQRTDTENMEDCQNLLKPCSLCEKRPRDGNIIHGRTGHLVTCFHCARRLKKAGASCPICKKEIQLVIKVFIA
Briefly: biochemical.

A further assay has as its system MSTO-211H. Briefly: cells. The note with it: Homo sapiens, 96 h.
The test system of another assay is SW480. Put plainly: Growth inhibition of human SW480 cells incubated for 4 days by CCK-8 assay. To be noted: SW480, 96 h. In general terms: Formazan colour is commonly taken as a measure of viable cells.
The test system of the next assay is NCI-H460. Briefly: Growth inhibition of human NCI-H460 cells harboring p53 incubated for 4 days by CCK-8 assay. To be noted: NCI-H460, 96 h.
A further assay has as its system HeLa. Put plainly: Growth inhibition of human HeLa cells harboring p53 incubated for 4 days by CCK-8 assay. The note with it: 96 h.
Another assay has as its system HepG2. Briefly: Growth inhibition of human HepG2 cells harboring p53 incubated for 4 days by celltiter glo assay. To be noted: HepG2, 96 h.
The test system of a further assay is A549. Put plainly: Growth inhibition of human A549 cells harboring p53 incubated for 4 days by CCK-8 assay. The note with it: A549, 96 h.

Sequence of Tumour suppressor protein p53/Mdm4 (P04637 whole entry, one chain of several): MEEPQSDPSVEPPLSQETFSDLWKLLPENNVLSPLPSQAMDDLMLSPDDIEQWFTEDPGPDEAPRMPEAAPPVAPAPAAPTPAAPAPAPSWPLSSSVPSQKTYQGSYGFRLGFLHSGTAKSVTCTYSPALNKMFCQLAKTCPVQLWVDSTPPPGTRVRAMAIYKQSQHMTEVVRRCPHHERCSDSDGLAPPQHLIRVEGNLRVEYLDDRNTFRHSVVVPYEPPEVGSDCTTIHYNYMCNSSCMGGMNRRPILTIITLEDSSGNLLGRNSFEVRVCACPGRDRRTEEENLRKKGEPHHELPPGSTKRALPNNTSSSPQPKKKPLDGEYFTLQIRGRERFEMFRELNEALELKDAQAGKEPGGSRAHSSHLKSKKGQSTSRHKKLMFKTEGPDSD
Sequence of Tumour suppressor p53/oncoprotein Mdm2 (P04637 whole entry): as the sequence (P04637 whole entry, one chain of several) above
Sequence of Tumour suppressor p53/oncoprotein Mdm2 (Q00987 whole entry): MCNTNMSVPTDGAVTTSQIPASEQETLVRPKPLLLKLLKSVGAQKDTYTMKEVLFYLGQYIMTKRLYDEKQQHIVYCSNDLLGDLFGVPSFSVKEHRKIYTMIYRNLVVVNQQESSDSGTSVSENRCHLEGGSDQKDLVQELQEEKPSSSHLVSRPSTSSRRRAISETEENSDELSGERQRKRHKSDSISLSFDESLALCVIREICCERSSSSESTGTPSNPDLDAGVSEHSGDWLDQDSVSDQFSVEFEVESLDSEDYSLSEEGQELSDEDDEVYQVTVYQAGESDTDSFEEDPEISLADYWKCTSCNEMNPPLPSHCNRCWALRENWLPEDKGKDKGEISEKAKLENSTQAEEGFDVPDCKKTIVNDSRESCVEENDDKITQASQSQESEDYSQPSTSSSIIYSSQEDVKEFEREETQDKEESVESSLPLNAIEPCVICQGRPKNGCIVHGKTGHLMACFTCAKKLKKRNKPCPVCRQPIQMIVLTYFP
Description for MSTO-211H: Growth inhibition of human MSTO-211H cells harboring p53 incubated for 4 days by CCK-8 assay
Description for Protein Mdm4: Inhibition of MDM4 (14 to 111 residues)/p53 (unknown origin) interaction expressed in Escherichia coli BL21(DE3) cells assessed as inhibition constant incubated for 1.5 hrs by competitive fluorescence polarization assay

Turning to `CCN1[C@@H](CC(C)(C)C)[C@@]2(CNc3cc(Cl)ccc32)[C@@H](c2ccccc2Cl)[C@@H]1C(=O)Nc1ccc(C(=O)O)cc1OC`, the IC50 was 2820 nM in the assay on U2OS, 2040 nM in the assay with HCT-116 [1] and 5240 nM in the assay on RKO.

Regarding `O=C1CN(C(=O)N2C(c3ccc4c(c3)C(=O)NCC(=O)N4c3ccccc3)=N[C@@H](c3ccc(Cl)cc3)[C@H]2c2ccc(Cl)cc2)CCN1`, the Ki was 10.8 nM in [2] and 2.1 nM in assay [3].

In the case of `CCN1[C@@H](CC(C)(C)C)[C@@]2(CNc3cc(Cl)ccc32)[C@@H](c2ccccc2F)[C@@H]1C(=O)Nc1ccc(C(=O)O)cc1OC`, the IC50 was found to be 3410 nM with U2OS, 865 nM in the assay with HCT-116 [1] and 2940 nM in the assay with RKO.

With `COc1cc(C(=O)O)ccc1NC(=O)[C@@H]1N[C@@H](CC(C)(C)C)[C@@]2(CNc3cc(Cl)ccc32)[C@H]1c1cccc(F)c1`, the IC50 was 1.3 nM with HCT-116 [1] and 66.9 nM in the assay on RKO.

Take `CCN1[C@@H](CC(C)(C)C)[C@@]2(CNc3cc(Cl)ccc32)[C@@H](c2cccc(C)c2)[C@@H]1C(=O)Nc1ccc(C(=O)O)cc1OC`: the IC50 was found to be 625 nM with U2OS, 144 nM with HCT-116 [1] and 1010 nM in the assay with RKO.

Turning to `COc1cc(C(=O)O)ccc1NC(=O)[C@@H]1N[C@@H](CC(C)(C)C)[C@@]2(CNc3cc(Cl)ccc32)[C@H]1c1cccc(Cl)c1`, the IC50 is less than 1 nM with HCT-116 [4] and 12.9 nM in the assay on RKO.

Turning to `CCN1[C@@H](CC(C)(C)C)[C@@]2(CNc3ccc(Cl)cc32)[C@@H](c2cccc(Cl)c2Cl)[C@@H]1C(=O)Nc1ccc(C(=O)O)cc1OC`, the IC50 with U2OS came out at 1840 nM; in the assay with HCT-116 [1], 1400 nM; with RKO it was 4430 nM.

Consider `CCN1[C@@H](CC(C)(C)C)[C@@]2(CNc3cc(Cl)ccc32)[C@@H](c2cccc(F)c2)[C@@H]1C(=O)Nc1ccc(C(=O)O)cc1OC`, for which the figures for the IC50 in the assay on U2OS, in the assay on HCT-116 [1] and in the assay with RKO were 304 nM, 25.7 nM and 172 nM, respectively.

With `COc1cc(C(=O)O)ccc1NC(=O)[C@@H]1N[C@@H](CC(C)(C)C)[C@@]2(CNc3cc(Cl)ccc32)[C@H]1c1cccc(C)c1`, the IC50 is 10 nM with HCT-116 [1] and 436 nM in the assay with RKO.

On to `CCN1[C@@H](CC(C)(C)C)[C@@]2(CNc3cc(Cl)ccc32)[C@@H](c2cccc(Cl)c2Cl)[C@@H]1C(=O)Nc1ccc(C(=O)O)cc1OC`, for which the IC50 with U2OS came out at 647 nM; in the assay with HCT-116 [1] it was 75.5 nM; with RKO, 330 nM.

With `CNC(=O)c1ccc(NC(=O)[C@@H]2N[C@@H](CC(C)(C)C)[C@@]3(CNc4cc(Cl)ccc43)[C@H]2c2cccc(Cl)c2F)c(OC)c1`, on Protein Mdm4, the Ki was more than 27 nM. Moreover, the figures for the IC50 in the assay with HCT-116 [1] and in the assay on RKO were 22 nM and 243 nM, respectively.

In the case of `COc1ccc(C2=N[C@@H](c3ccc(Cl)cc3)[C@@H](c3ccc(Cl)cc3)N2C(=O)N2CCNC(=O)C2)c(OC(C)C)c1` [NUTLIN-3], the IC50 stood at 2800 nM in the assay with MSTO-211H; 24.1 nM in the assay on SW480; 6.49 nM in the assay on NCI-H460; 28.2 nM in the assay on HeLa; 1040 nM with HCT-116 [1]; 1920 nM with RKO. Further, the IC50 in the assay on HepG2 stood at 2050 nM; in the assay with A549, 1880 nM.

The values above are taken from ChEMBL document CHEMBL5375985, “Discovery of JN122, a Spiroindoline-Containing Molecule that Inhibits MDM2/p53 Protein-Protein Interaction and Exerts Robust In Vivo Antitumor Efficacy” (J Med Chem, 2023).
